Columns and labels:
FaSSIF solubility (HPLC) = details: positive control, range
Method: Compounds were first dispersed in freshly prepared FaSSIF (http://biorelevant.com/site_media/upload/documents/How_to_make_FaSSIF_FeSSIF_and_FaSSGF.pdf) buffer in 1 mg/mL respectively, and the standard samples were prepared by preparing 1 mg/mL of test compounds in DMSO. The compounds were then sufficient mixed by vortex mixer for 30 sec, and agitated at 25° C. using 300 rpm form 4 hour in thermo mixer. After incubation, the prepared samples were centrifuged at 10000 rpm for 10 min to remove the undissolved solid, the resulting supernatants were applied to HPLC.
S=Csmp=Cstd*(Asmp/Astd)*(Vstd/Vsmp)
Where C is the sample concentration in μg/mL, A is the peak area, and V is the injection volume.

PRMT5/MEP50 complex = PRMT5/MEP50 complex (Homo sapiens, UniProt O14744); experiment: Biochemical assay: PRMT5/MEP50 methylation of histone H2A with 3H-SAM, filter plate scintillation; details: PRMT5/MEP50 5 nM, histone H2A 5 μM, SAM 1 μM
Method: Compounds were solubilized and 3-fold diluted in 100% DMSO. […] Standard reactions were performed in a total volume of 50 μl in assay buffer, with histone H2A (5 μM final) as substrate. To this was added the PRMT5/MEP50 complex diluted to provide a final assay concentration of 5 nM and the compounds were allowed to preincubate for 15 to 20 minutes at room temperature. The reaction was initiated by adding S-[3H-methyl]-adenosyl-L-methionine (PerkinElmer) to final concentration of 1 μM. Following a 60 minutes incubation at 30° C., the reaction was stopped by adding 100 μL of 20% TCA. Each reaction was spotted onto filter plate (MultiScreen FB Filter Plate, Millipore), and washed 5 times with PBS buffer, Scintillation fluid was added to the filter plate and read in a scintillation counter. IC50 values were determined by fitting the data to the standard 4 parameters with Hill Slope using GraphPad Prism software.

[1] = In vivo pharmacokinetics in rat, i.v. and p.o.; details: rat (SD, male, non-fasted), average, N=3
Method: In a rat (SD, male, non-fasted) non-crossover PK study, Example 47 was dosed at 1 mg/kg (DMA: 20% HPBCD=5:95, solution) via i.v. administration (N=3) and 1 mg/kg (0.5% Na CMC+0.5% Tween80, solution) via oral gauge (p.o.) (N=3).

Sequence of PRMT5/MEP50 complex (O14744 whole entry, species assumed): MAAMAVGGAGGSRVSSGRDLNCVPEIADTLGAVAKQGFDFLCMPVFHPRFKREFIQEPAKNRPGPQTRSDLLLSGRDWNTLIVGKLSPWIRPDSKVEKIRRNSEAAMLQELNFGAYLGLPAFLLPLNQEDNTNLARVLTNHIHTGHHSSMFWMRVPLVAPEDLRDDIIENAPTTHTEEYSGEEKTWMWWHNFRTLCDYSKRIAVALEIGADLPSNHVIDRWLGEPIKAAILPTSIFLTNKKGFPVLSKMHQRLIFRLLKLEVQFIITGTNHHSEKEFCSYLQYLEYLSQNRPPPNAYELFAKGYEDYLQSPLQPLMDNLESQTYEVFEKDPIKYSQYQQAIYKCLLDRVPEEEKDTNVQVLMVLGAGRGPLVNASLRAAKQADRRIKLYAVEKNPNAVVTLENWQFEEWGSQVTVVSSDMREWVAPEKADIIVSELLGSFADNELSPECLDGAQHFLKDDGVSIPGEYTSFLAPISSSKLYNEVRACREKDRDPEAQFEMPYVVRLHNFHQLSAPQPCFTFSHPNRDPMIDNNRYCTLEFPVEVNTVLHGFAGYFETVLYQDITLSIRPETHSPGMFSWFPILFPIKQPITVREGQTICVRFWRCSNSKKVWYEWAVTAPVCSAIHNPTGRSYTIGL
Sequence of PRMT5/MEP50 complex (Q9BQA1 whole entry partner, species assumed): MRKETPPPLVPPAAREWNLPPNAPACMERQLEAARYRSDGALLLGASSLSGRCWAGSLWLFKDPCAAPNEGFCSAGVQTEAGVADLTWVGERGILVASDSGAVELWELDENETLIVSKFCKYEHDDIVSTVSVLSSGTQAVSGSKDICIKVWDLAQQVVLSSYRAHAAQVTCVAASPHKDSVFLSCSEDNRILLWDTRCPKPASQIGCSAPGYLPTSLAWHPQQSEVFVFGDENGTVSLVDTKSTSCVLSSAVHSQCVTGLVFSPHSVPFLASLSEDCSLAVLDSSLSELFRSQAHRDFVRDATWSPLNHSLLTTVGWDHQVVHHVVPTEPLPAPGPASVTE

With CC(=O)CC(c1ccccc1)c1c(O)c2ccccc2oc1=O (stereo not drawn) [Warfarin] the “FaSSIF solubility (positive controls)” value (FaSSIF solubility (HPLC)) was 10 to 25 µg/mL.

Molecule C[C@@]1(O)[C@@H]([C@@H](O)c2ccc(Cl)c(Cl)c2)O[C@@H](n2ccc3c(N)ncnc32)[C@@H]1O [Example 66, (2R,3S,4R,5R)-5-(4-amino-7H-pyrrolo[2,3-d]pyrimidin-7-yl)-2-((S)-(3,4-dichlorophenyl) (hydroxy)methyl)-3-methyltetrahydrofuran-3,4-diol] has an IC50 (PRMT5/MEP50 complex) of 707 nM.

C[C@@]1(O)[C@@H]([C@H](O)c2ccc(Cl)c(Cl)c2)O[C@@H](n2ccc3c(N)ncnc32)[C@@H]1O [Example 47, (2R,3S,4R,5R)-5-(4-amino-7H-pyrrolo[2,3-d]pyrimidin-7-yl)-2-((R)-(3,4-dichlorophenyl) (hydroxy)methyl)-3-methyltetrahydrofuran-3,4-diol] showed a T1/2 ([1]; 1 mg/kg i.v.) of 4.1 h, a Vss ([1]; 1 mg/kg i.v.) of 3.1 L/kg and a blood clearance ([1]; 1 mg/kg i.v.) of 8.8 mL/min/kg. For the same molecule, the “dose normalized AUC” value ([1]; 1 mg/kg p.o.) was 3246 ng·kg·h/mL/mg.
